Results as given in patent publication US6825230B2, “Spiro and dispiro 1,2,4-trixolane antimalarials” (Medicines for Malaria Venture MMV, priority 2002, dated 2004).
In brackets after ≈: the same amount, converted by molar mass. Where two headings read alike, the source gives them in different places.

Tests used:
[1] = test system: chloroquine-resistant K1 strain of P. falciparum; test: In vitro antimalarial semiautomated microdilution assay ([3H]-hypoxanthine incorporation), K1 strain; assay type: cell-based, Plasmodium falciparum; conditions: Plasmodium falciparum
Method in brief: (§1)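 IC50 values come from Logit regression of [3H]-hypoxanthine uptake data. Parasites were intraerythrocytic P. falciparum forms taken from asynchronous stock cultures and tested by semiautomated microdilution.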

[2] = test system: chloroquine-sensitive NF54 strain of P. falciparum; test: In vitro antimalarial semiautomated microdilution assay ([3H]-hypoxanthine incorporation), NF54 strain; assay type: cell-based, Plasmodium falciparum; conditions: Plasmodium falciparum
Method in brief: as §1

[3] = test system: ANKA strain of P. berghei; test: Single dose STI in vivo screen in infected mice; set-up: species or system Plasmodium berghei; conditions: for Survival (days) 10 mg/kg po: single 10 mg/kg po in 3% ethanol and 7% Tween 80; for Survival (days) 10 mg/kg po / Survival (days) 10 mg/kg SSV po / Survival (days) 10 mg/kg sc: untreated 6-7 days; for Activity (%) 10 mg/kg po: single 10 mg/kg po in 3% ethanol and 7% Tween 80 on day 1 post-infection; for Survival (days) 10 mg/kg SSV po: single 10 mg/kg po in SSV; for Activity (%) 10 mg/kg SSV po: single 10 mg/kg po in standard suspending vehicle (SSV) on day 1 post-infection; for Survival (days) 10 mg/kg sc: single 10 mg/kg sc in 3% ethanol and 7% Tween 80; for Activity (%) 10 mg/kg sc: single 10 mg/kg sc in 3% ethanol and 7% Tween 80 on day 1 post-infection
[4] = K1, 72 h, read-out: IC50 (ng/ml) K1, chloroquine-resistant K1 strain, 72 h incubation
[5] = NF54, 72 h, read-out: IC50 (ng/ml) NF54, chloroquine-sensitive NF54 strain, 72 h incubation
[6] = percent reduction in parasitemia on day 3
[7] = chloroquine-resistant K1 strain, 72 h incubation, read-out: IC50 (ng/ml) K1
[8] = chloroquine-sensitive NF54 strain, 72 h incubation, read-out: IC50 (ng/ml) NF54

Row | SMILES | IC50 [1, 4] [ng/mL] | IC50 [2, 5] [ng/mL] | Survival (days) 10 mg/kg po [3] [days] | Activity (%) 10 mg/kg po [3, 6] [%] | Survival (days) 10 mg/kg SSV po [3] [days] | Activity (%) 10 mg/kg SSV po [3, 6] [%] | Survival (days) 10 mg/kg sc [3] [days] | Activity (%) 10 mg/kg sc [3, 6] [%] | IC50 [1, 7] [ng/mL] | IC50 [2, 8] [ng/mL] | Survival (days) 3 mg/kg SSV po ([3]; single 3 mg/kg po in SSV) [days] | Activity (%) 3 mg/kg SSV po ([3]; single 3 mg/kg po in SSV, percent reduction in parasitemia on day 3) [%]
1 | CCCCS(=O)(=O)N1CCC2(CC1)OOC1(O2)C2CC3CC(C2)CC1C3 (stereo not shown) [OZ92, Adamantane-2-spiro-3′-8′-(1′-butanesulfonyl)-1′,2′,4′-trioxa-8′-azaspiro[4.5]decane] | 1.6 (≈ 4.15 nM) | 0.4 (≈ 1.04 nM) | 6.7 | 81 | 6.3 | 35 | 10.0 | 99.98 | – | – | – | –
2 | CN(C)S(=O)(=O)N1CCC2(CC1)OOC1(O2)C2CC3CC(C2)CC1C3 (stereo not shown) [OZ190, Adamantane-2-spiro-3′-8′-(dimethylaminosulfonyl)-1′,2′,4′-trioxa-8′-azaspiro[4.5]decane] | 0.16 (≈ 0.43 nM) | 1 (≈ 2.68 nM) | 8.7 | 98 | 7.7 | 78 | 5.7 | 2 | – | – | – | –
3 | O=C1OC2(CCC3(CC2)OOC2(O3)C3CC4CC(C3)CC2C4)c2ccccc21 (stereo not shown) [OZ149, Adamantane-2-spiro-3′-1′,2′,4′-trioxaspiro[4.5]decane-8′-spiro-1″-3″-oxo-3″H-isobenzofuran] | – | – | 7.7 | 64 | 6.0 | 3 | 14.3 | 87 | 8 (≈ 20.9 nM) | 8.8 (≈ 23 nM) | – | –
4 | O=C(C[C@H]1CC[C@]2(CC1)OO[C@]1(O2)C2CC3CC(C2)CC1C3)NCCN1CCOCC1 [OZ313] | 0.55 (≈ 1.27 nM) | 0.76 (≈ 1.75 nM) | – | – | 10.4 | – | – | – | – | – | 7.4 | 58
5 | COC(=O)c1ncnn1C[C@H]1CC[C@]2(CC1)OOC1(O2)C2CC3CC(C2)CC1C3 (stereo partly shown) [OZ233] | 1.7 (≈ 4.21 nM) | 1.9 (≈ 4.71 nM) | 7.0 | 69 | 7.7 | 76 | 8.3 | 99.66 | – | – | – | –
6 | O=S(=O)(c1cccc2cccnc12)N1CCC2(CC1)OOC1(O2)C2CC3CC(C2)CC1C3 (stereo not shown) [OZ114, Adamantane-2-spiro-3′-8′-(8′-quinolinesulfonyl)-1′,2′,4′-trioxa-8′-azaspiro[4.5]decane] | 3.7 (≈ 8.1 nM) | 2.2 (≈ 4.82 nM) | 5.7 | 0 | 6.0 | 0 | 8.7 | 99.64 | – | – | – | –
7 | O=C(O)c1cccc([C@H]2CC[C@]3(CC2)OOC2(O3)C3CC4CC(C3)CC2C4)c1 (stereo partly shown) [OZ198] | > 10 | > 10 | 5.7 | 4 | 6.0 | 6 | 5.7 | 6 | – | – | – | –
8 | OCC1(CO)COC2(CCC3(CC2)OOC2(O3)C3CC4CC(C3)CC2C4)OC1 (stereo not shown) [OZ121, Adamantane-2-spiro-3′-11′,11′-bis(hydroxymethyl)-1′,2′,4′,9′,13′-pentaoxadispiro[4.2.5.2]pentadecane] | 0.96 (≈ 2.42 nM) | 0.41 (≈ 1.03 nM) | 7.3 | 91 | 8.0 | 98 | 7.3 | 99.61 | – | – | – | –
9 | O=C(C[C@H]1CC[C@]2(CC1)OOC1(O2)C2CC3CC(C2)CC1C3)N1CCN(c2ccccc2)CC1 (stereo partly shown) [OZ244] | – | – | 5.7 | 6 | 5.3 | 0 | 6.3 | 18 | 4 (≈ 8.57 nM) | 4.2 (≈ 9 nM) | – | –
10 | O=C(N1CCCC1)N1CCC2(CC1)OOC1(O2)C2CC3CC(C2)CC1C3 (stereo not shown) [OZ203, Adamantane-2-spiro-3′-8′-(1′-pyrrolidinylcarbonyl)-1′,2′,4′-trioxa-8′-azaspiro[4.5]decane] | 3.9 (≈ 10.8 nM) | 6.7 (≈ 18.5 nM) | 7.3 | 87 | 8.7 | 99.42 | 9.7 | 99.72 | – | – | – | –
11 | C1C2CC3CC1CC(C2)C31OO[C@]2(CC[C@@H](CNC3CC3)CC2)O1 (stereo partly shown) [OZ253] | – | – | 7.0 | 75 | 6.7 | 59 | 9.3 | 99.82 | 0.56 (≈ 1.68 nM) | 0.45 (≈ 1.35 nM) | – | –
